Laboratory results: US20160213632A1, “Memory Performance and Prevention and Treatment of Neurodegenerative Diseases” (Max Planck Florida Institute for Neuroscience, priority 2015, published 2016)
Entries after “also recorded” stand apart in the source; their conditions may differ.

Columns and labels:
CA1 neurons = assay: Dendritic spine density in cultured (organotypic) hippocampal slices treated with Aβ; assay type: cell-based, mice
Description: Organotypic hippocampal slice cultures (300 μm thick) were prepared from mice at postnatal day 6 or 7. After 1 week in culture, slices were transfected using biolistic gene transfer. Aβ stock solution (200 μM) was prepared in 1% NH4OH as a vehicle and added directly to the culture medium at a final concentration of 1 μM. FTI-277 was dissolved in DMSO and added directly to the culture medium at a final concentration of 10 μM.

organotypic slices = organotypic slices (Szatmari et al, 2013); cited from earlier work
Ras = assay: Active Ras pull-down assay in hippocampus of AD model (APP) mice; assay type: in vivo; details: hippocampus of 6 months old APP mice; daily IP injections for 3 consecutive days
Description: (§1) As a model for AD, male hAPPJ20 transgenic mice were used (Mucke et al., 2000). Non-transgenic male littermates were used for controls.
The level of active Ras in hippocampal lysates from CentA1 KO mice and their wild type litter mates was measured with an active Ras pull-down and detection kit and following the instructions from manufacturer (Thermo Scientific). Western blotting was conducted with mouse anti-Ras antibody.

ERK1/2 = assay: Western blotting for active/phosphorylated ERK1/2 in AD model mice; assay type: in vivo; details: daily IP injections for 3 consecutive days
Description: as §1
Protein expression and/or phosphorylation was evaluated by standard western blotting protocol using the following antibodies: goat anti-centaurin-α1 (Abcam; 1:500); mouse anti-β-actin (Sigma, 1:2000); mouse 6E10 (Covance, 1:1000); rabbit anti-phosphoERK1/2 (Cell Signaling Technologies, 1:1000); mouse anti-ERK1/2 (Cell Signaling Technologies, 1:1000); mouse anti-Ras (Pierce, 1:1000); rabbit anti-Hsp10 (Cell Signaling Technologies, 1:1000); rabbit anti-Hsp60 (Cell Signaling Technologies, 1:1000); and HRP-labeled anti-mouse, anti-goat, or anti-rabbit IgG antibodies (BioRad; 1:2000).

| SMILES | Aβ-induced spine loss (CA1 neurons; organotypic slices, FTI-277 10 μM, Aβ 1 μM) | Aβ-induced decreased mEPSC frequency (organotypic slices) | Ras activity (pull-down assay) (Ras) | active/phosphorylated ERK1/2 (downstream of Ras) (ERK1/2) | dendritic spine density in CA1 neurons exposed to Aβ (CA1 neurons; cultured hippocampal slices, vehicle or Aβ in presence or absence of FTI-276 (FIG. 6D)) |
| --- | --- | --- | --- | --- | --- |
| COC(=O)[C@H](CCSC)NC(=O)c1ccc(NC[C@@H](N)CS)cc1-c1ccccc1 [FTI-277] | prevented | prevented | – | – | – |
| CSCC[C@H](NC(=O)c1ccc(NC[C@@H](N)CS)cc1-c1ccccc1)C(=O)O [FTI-276] | – | – | reduced; also recorded: prevented Ras hyperactivation | reduces the activity of signaling pathways downstream of Ras; also recorded: reduced phosphorylation/activation of ERK1/2 | restored |
